These results are taken from patent US10932466B2, “Fungicidal compositions” (SYNGENTA PARTICIPATIONS AG, priority 2016, dated 2021).

The structures appear in SMILES notation. Read-outs that look alike come from different tables or passages of the source.

What all share (format): cell-based
One test deals with Botrytis cinerea. The experiment in a line: Botrytis cinerea (gray mould) growth inhibition in PDB, 96-well microtiter plate, photometric after 72 hrs. Conditions: for inhibition at 0.0063 ppm: 1.001 0.0063 ppm alone. How it is done: V) Botrytis cinerea (Gray Mould): Conidia of the fungus from cryogenic storage were directly mixed into nutrient broth (PDB potato dextrose broth). After placing a (DMSO) solution of the test compounds into a microtiter plate (96-well format), the nutrient broth containing the fungal spores was added. The test plates were incubated at 24 C and the inhibition of growth was determined photometrically after 72 hrs.

A further test has as its system Septoria tritici. As to the kind of experiment: Septoria tritici (leaf blotch) growth inhibition in PDB, 96-well microtiter plate, photometric after 72 hrs. Conditions: Zymoseptoria tritici; for inhibition at 0.0008 ppm: 1.001 0.0008 ppm alone. As to the method: I) Septoria tritici (Leaf Blotch): Conidia of the fungus from cryogenic storage were directly mixed into nutrient broth (PDB potato dextrose broth). After placing a (DMSO) solution of the test compounds into a microtiter plate (96-well format), the nutrient broth containing the fungal spores was added. The test plates were incubated at 24 C and the inhibition of growth was determined photometrically after 72 hrs.

The test system of a further test is Rhizoctonia solani. As to the kind of experiment: Rhizoctonia solani (Thanatephorus cucumeris) growth inhibition in PDB, 96-well microtiter plate, photometric and visual after 3-4 days. Conditions: for inhibition at 0.0063 ppm: 1.001 0.0063 ppm alone; for inhibition at 0.0125 ppm: 1.001 0.0125 ppm alone; for inhibition at 0.025 ppm: 1.001 0.0250 ppm alone; for inhibition at 0.05 ppm: 1.001 0.0500 ppm alone; for inhibition at 0.1 ppm: 1.001 0.1000 ppm alone. As to the method:
VI) Rhizoctonia solani (Thanatephorus cucumeris) Mycelial fragments of a newly grown liquid culture of the fungus were directly mixed into nutrient broth (PDB potato dextrose broth). After placing a (DMSO) solution of the test compounds into a microtiter plate (96-well format), the nutrient broth containing the fungal material was added. The test plates were incubated at 24° C. and the inhibition of growth was determined photometrically and visually 3-4 days after application.

In another test the test system is Alternaria solani. The experiment in a line: Alternaria solani (early blight tomato/potato) growth inhibition in PDB, 96-well microtiter plate, photometric after 48 hrs. To be noted: for Compound 1.001 inhibition: 1.001 0.0000 ppm, Table 11; for inhibition at 0.0008 ppm: 1.001 0.0008 ppm alone. How it is done:
III) Altemaria solani (Early Blight Tomato/Potato):
Conidia of the fungus from cryogenic storage were directly mixed into nutrient broth (PDB potato dextrose broth). After placing a (DMSO) solution of the test compounds into a microtiter plate (96-well format), the nutrient broth containing the fungal spores was added. The test plates were incubated at 24 C and the inhibition of growth was determined photometrically after 48 hrs.

Another test relates to Venturia inaequalis. As to the kind of experiment: Venturia inaequalis (apple scab) growth inhibition in PDB, 96-well microtiter plate, photometric after 7 days. To be noted: for inhibition at 0.0016 ppm: 1.001 0.0016 ppm alone; for inhibition at 0.0031 ppm: 1.001 0.0031 ppm alone. How it is done:
IV) Venturia inaeaualis (Apple Scab): Conidia of the fungus from cryogenic storage were directly mixed into nutrient broth (PDB potato dextrose broth). After placing a (DMSO) solution of the test compounds into a microtiter plate (96-well format), the nutrient broth containing the fungal spores was added. The test plates were incubated at 24 C and the inhibition of growth was determined photometrically after 7 days.

The subject of test [1] is Mycosphaerella arachidis, syn. Cercospora arachidicola. As to the kind of experiment: Mycosphaerella arachidis (peanut brown leaf spot) growth inhibition in PDB, 96-well microtiter plate, photometric after 5-6 days. How it is done:
II) Mycosphaerella arachidis, syn. Cercospora arachidicola (Peanut Brown Leaf Soot): Conidia of the fungus from cryogenic storage were directly mixed into nutrient broth (PDB potato dextrose broth). After placing a (DMSO) solution of the test compounds into a microtiter plate (96-well format), the nutrient broth containing the fungal spores was added. The test plates were incubated at 24 C and the inhibition of growth was determined photometrically after approximately 5-6 days.

Where [2] appears, read: Table 8, read-out: Compound 1.001 inhibition.
Setting [3] is: Table 14, read-out: Compound 1.001 inhibition.
Setting [4] is: Table 6, read-out: Compound 1.001 inhibition.
Setting [5] is: Table 12, read-out: Compound 1.001 inhibition.

Consider `Cc1nnc(Cl)c(-c2c(F)cccc2F)c1-c1ccccc1` [(IIc), 4-(2,6-difluorophenyl)-3-chloro-6-methyl-5-phenyl-pyridazine], for which the inhibition at 0.0156 ppm is 5% in the test on Botrytis cinerea ((IIc) 0.0156 ppm alone, Table 7); 1% with Septoria tritici ((IIc) 0.0156 ppm alone, Table 4); 6% in the test with Venturia inaequalis ((IIc) 0.0156 ppm alone, Table 6, read-out: (IIc) Inhibition). Also, the inhibition at 0.0313 ppm in the test on Botrytis cinerea ((IIc) 0.0313 ppm alone, Table 7, read-out: (IIc) Inhibition) came to 4%; with Rhizoctonia solani ((IIc) 0.0313 ppm alone, Table 8) it was 5%; with Venturia inaequalis ((IIc) 0.0313 ppm alone, Table 6, read-out: (IIc) Inhibition), 0%. This compound also registered an inhibition at 0.0625 ppm with Rhizoctonia solani ((IIc) 0.0625 ppm alone, Table 8) of 31%. In the test on Rhizoctonia solani ((IIc) 0.1250 ppm alone, Table 8), this compound yielded an inhibition at 0.125 ppm of 85%. At 0.25 ppm the inhibition in the test on Rhizoctonia solani ((IIc) 0.2500 ppm alone, Table 8) was 88%. Also, the inhibition at 0.002 ppm in the test with Alternaria solani (Alternaria solani, (IIc) 0.0020 ppm alone, Table 5) stood at 0%. The inhibition at 0.0078 ppm in the test on Venturia inaequalis ((IIc) 0.0078 ppm alone, Table 6) was 0%.

`Cc1nnc(C#N)c(-c2c(F)cccc2F)c1-c1ccccc1` [(IId), 4-(2,6-difluorophenyl)-6-methyl-5-phenyl-pyridazine-3-carbonitrile]: at 0.0039 ppm the inhibition in test [1] ((IId) 0.0039 ppm alone, Table 10) was 5%. The inhibition at 0.0313 ppm came to 5% in test [1] ((IId) 0.0313 ppm alone, Table 10); 0% in the test on Botrytis cinerea ((IId) 0.0313 ppm alone, Table 13, read-out: (IId) Inhibition); 3% in the test with Septoria tritici ((IId) 0.0313 ppm alone, Table 9); 15% with Venturia inaequalis ((IId) 0.0313 ppm alone, Table 12, read-out: (IId) Inhibition). Moreover, the inhibition at 0.0625 ppm in the test on Botrytis cinerea ((IId) 0.0625 ppm alone, Table 13) was 0%; in the test on Septoria tritici ((IId) 0.0625 ppm alone, Table 9), 8%; in the test on Venturia inaequalis ((IId) 0.0625 ppm alone, Table 12) it was 0%. This compound yielded an inhibition at 0.5 ppm in the test on Rhizoctonia solani ((IId) 0.5000 ppm alone, Table 14) of 31%. The inhibition at 0.0156 ppm in the test with Venturia inaequalis ((IId) 0.0156 ppm alone, Table 12, read-out: (IId) Inhibition) came to 0%.

Take `CON(C(=O)c1cn(C)nc1C(F)F)C(C)Cc1c(Cl)cc(Cl)cc1Cl` (stereo not drawn) [Compound 1.001, 3-(difluoromethyl)-N-methoxy-1-methyl-N-[1-methyl-2-(2,4,6-trichlorophenyl)ethyl]pyrazole-4-carboxamide]: the inhibition at 0.0004 ppm in test [1] (1.001 0.0004 ppm alone, Table 10, read-out: Compound 1.001 inhibition) was 47%; in the test with Alternaria solani (Alternaria solani, 1.001 0.0004 ppm alone, Table 11, read-out: Compound 1.001 inhibition), 26%. The inhibition at 0.0063 ppm stood at 30% in the test with Botrytis cinerea (Table 7, read-out: Compound 1.001 inhibition); 34% in the test on Botrytis cinerea (Table 13, read-out: Compound 1.001 inhibition); 16% with Rhizoctonia solani (setting [2]); 0% in the test with Rhizoctonia solani (setting [3]). Further, the inhibition at 0.0008 ppm is 49% in the test on Septoria tritici (Table 4, read-out: Compound 1.001 inhibition); 45% in the test on Septoria tritici (Table 9, read-out: Compound 1.001 inhibition); 23% with Alternaria solani (Alternaria solani, Table 5, read-out: Compound 1.001 inhibition); 34% in the test with Alternaria solani (Alternaria solani, Table 11, read-out: Compound 1.001 inhibition). The inhibition at 0.0016 ppm with Septoria tritici (1.001 0.0016 ppm alone, Table 9, read-out: Compound 1.001 inhibition) amounted to 81%; in the test with Alternaria solani (Alternaria solani, 1.001 0.0016 ppm alone, Table 11, read-out: Compound 1.001 inhibition), 60%; with Venturia inaequalis (setting [4]), 62%; in the test with Venturia inaequalis (setting [5]) it was 50%. Moreover, the inhibition at 0.0031 ppm in the test with Rhizoctonia solani (1.001 0.0031 ppm alone, Table 8, read-out: Compound 1.001 inhibition) came out at 13%; with Venturia inaequalis (setting [4]), 84%; in the test with Venturia inaequalis (setting [5]), 81%. In addition, the inhibition at 0.0125 ppm with Rhizoctonia solani (setting [2]) and in the test with Rhizoctonia solani (setting [3]) was 0% throughout. Besides, the inhibition at 0.025 ppm was determined as 0% in the test with Rhizoctonia solani (setting [2]) and 9% in the test on Rhizoctonia solani (setting [3]). The figures for the inhibition at 0.05 ppm in the test on Rhizoctonia solani (setting [2]) and in the test on Rhizoctonia solani (setting [3]) were 15% and 0%, respectively. Also, the inhibition at 0.1 ppm with Rhizoctonia solani (setting [2]) and in the test with Rhizoctonia solani (setting [3]) was 0% each time. The “Compound 1.001 inhibition” value in the test with Alternaria solani ((IId) 0.0039 ppm) amounted to 9%; with Alternaria solani ((IId) 0.0078 ppm), 6%; in the test with Alternaria solani ((IId) 0.0156 ppm), 10%; with Alternaria solani ((IId) 0.0625 ppm), 6%; in the test with Alternaria solani ((IId) 0.1250 ppm), 0%.
